Values after ≈ are worked out from the molar mass of the structure shown. Where two headings read alike, the source gives them in different places.
Assays:
[1] = test system: L1210 leukemia cells; assay: Action of inhibiting proliferation of L1210 leukemia cell; type: cell-based; conditions: RPMI medium, 10% FCS, 37° C., 4 days, trypan blue
Procedure: Measurement of the action of inhibiting Proliferation of L1210 leukemia cell
L1210 leukemia cells were added to an RPMI medium containing 10% FCS (fetal calf serum), and the concentration of the cells was adjusted to […]. Each of the test compounds shown in Table I was dissolved in 99.5% ethanol. Prior to use, the final concentration of the ethanol solution was adjusted to less than 0.1%, and it was added to the culture medium. The culture medium was then maintained at 37° C. in a stationary condition for 4 days. After the cultivation, the number of surviving cells was measured by dyeing with trypan blue. As a control, 0.1% ethanol was used. A dose-reaction curve plotted from the ratios of proliferation against the control, and IC50 was determined.

[2] = test system: P388 mouse leukemia cells; assay: Antitumor effect on P388 mouse leukemia tumor in ICR mice; type: in vivo; conditions: i.p., 5 days
Procedure: Measurement of the antitumor effect on P338 mouse leukemia tumor
1×10^5 P388 mouse leukemia cells were intraperitoneally administered to ICR mice. After the lapse of 24 hours, each of the test compounds shown in Table II was intraperitoneally administered to the mice for 5 days. The periods of survival of these animals were examined and the increase of their life span (ILS%) were determined.

[3] = Mus musculus, 96 h, read-out: IC50

| SMILES | IC50 [1, 3] [µg/mL] | Increase of life span ILS (%) ([2]; 5 mg/kg/day) | Survival ([2]; 5 mg/kg/day) [days] | Increase of life span ILS (%) ([2]; 10 mg/kg/day) | Survival ([2]; 10 mg/kg/day) [days] | Increase of life span ILS (%) ([2]; 15 mg/kg/day) | Survival ([2]; 15 mg/kg/day) [days] | IC50 [1] [µg/mL] | Increase of life span ILS (%) ([2]; 2.5 mg/kg/day) | Survival ([2]; 2.5 mg/kg/day) [days] |
| --- | --- | --- | --- | --- | --- | --- | --- | --- | --- | --- |
| CCCCCCCC[C@@]1(O)C=CC(=O)/C1=C/CCCCCC(=O)OC [Compound 142, (4R)-5-[(E)-6-methoxycarbonylhexylidene]-4-hydroxy-4-octyl-2-cyclopentenone] | 0.15 (≈ 0.428 µM) | 5.4 | 10.3 ± 0.5 | 15.3 | 11.3 ± 0.5 | – | – | – | – | – |
| CCCCCCCC[C@@]1(O)C=CC(=O)/C1=C\CCCCCC(=O)OC [Compound 144, (4R)-5-[(Z)-6-methoxycarbonylhexylidene]-4-hydroxy-4-octyl-2-cyclopentenone] | 0.15 (≈ 0.428 µM) | 2.9 | 10.7 ± 0.5 | 17.3 | 12.2 ± 1.2 | 12.5 | 11.7 ± 0.5 | – | – | – |
| O=C1C=CC(O)(CCCCOc2ccccc2)C1=C/C=C/C(O)CCCO (stereo not drawn) [Compound 148] | – | 32.7 | 13.0 ± 1.4 | 29.6 | 12.7 ± 0.7 | – | – | 1.5 (≈ 4.03 µM) | 15.3 | 11.3 ± 0.5 |
| COC(=O)CCCCCC=C1C(=O)C(Cl)=CC1(O)CCCc1ccc(OC)c(OC)c1 (stereo not drawn) [Compound 152, 2-chloro-4-hydroxy-4-[3-(3,4-dimethoxyphenyl)propyl]-5-(6-methoxycarbonylhexylidene)-2-cyclopentenone] | 0.06 (≈ 0.133 µM) | – | – | 19.4 | 11.7 ± 1.1 | – | – | – | – | – |
| CCCCCCCCC1(O)C=C(Cl)C(=O)C1=CCCCCCC(=O)OC (stereo not drawn) [Compound 154, 2-chloro-4-hydroxy-5-(6-methoxycarbonylhexylidene)-4-octyl-2-cyclopentenone] | 0.03 (≈ 0.0779 µM) | – | – | 7.1 | 10.5 ± 0.8 | – | – | – | – | – |
| COC(=O)CCCCC/C=C1\C(=O)C(Cl)=CC1(O)CCC(C)CCCC(C)C (stereo not drawn) [Compound 156, 2-chloro-4-(3,7-dimethyloctyl)-4-hydroxy-5-[(Z)-6-methoxycarbonylhexylidene]-2-cyclopentenone] | 0.035 (≈ 0.0847 µM) | – | – | – | – | – | – | – | – | – |
| COC(=O)CCCCC/C=C1/C(=O)C(Cl)=CC1(O)CCC(C)CCCC(C)C (stereo not drawn) [Compound 158, 2-chloro-4-(3,7-dimethyloctyl)-4-hydroxy-5-[(E)-6-methoxycarbonylhexylidene]-2-cyclopentenone] | 0.025 (≈ 0.0605 µM) | – | – | – | – | – | – | – | – | – |
| COC(=O)CCCCCC(O)C1C(=O)C(Cl)=CC1(O)CCCc1ccc(OC)c(OC)c1 (stereo not drawn) [Compound 226, 2-chloro-4-hydroxy-4-[3-(3,4-dimethoxyphenyl)propyl]-5-(1-hydroxy-6-methoxycarbonylhexyl)-2-cyclopentenone] | 0.2 (≈ 0.426 µM) | 10.0 | 11.0 ± 0 | – | – | – | – | – | – | – |
| CC(C)=CCCC(C)=CC(O)C1C(=O)C=CC1(O)CCCCOc1ccccc1 (stereo not drawn) [Compound 228, 4-(4-phenoxybutyl)-4-hydroxy-5-(3,7-dimethyl-1-hydroxy-2,6-octadiene)-2-cyclopentenone] | 0.4 (≈ 1 µM) | – | – | – | – | 4.1 | 10.2 ± 0.9 | – | – | – |

Reference: patent publication US4711895A, “4-hydroxy-2-cyclopentenone, process for production thereof, pharmaceutical composition comprising it” (Teijin Limited, priority 1984, dated 1987)
